Among the data in PubChem BioAssay AID1259426 (Fisher Drug Discovery Resource Center, 2018) are EC50 values, retold here.

“And” between values parts separate entries of the source, which are not always exact repeats. Equal values may be shown once. The source made the active and inactive calls.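 Rule for the calls: active = EC50 under a set limit in control cells lacking the mosquito receptor, marking a fluorescence artifact; inactive = the rest.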

In this assay the target is HEK293 Galpha15/GCaMP6s without NPYLR7, calcium fluorescence. Kind of assay: calcium response in NPYLR7-null HEK293 cells, dose response, counter-screen for mosquito NPYLR7 agonist project, cell-based, HEK293 lacking NPYLR7 (AID 1259426).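 Note: potency for a rise in fluorescence over baseline.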 On the technique in general: The purpose of a counterscreen is to sort out artefacts and off-target activity.
With `O=C1c2cccc3c(Nc4ccccc4)ccc(c23)C(=O)N1c1ccccc1`, the EC50 is 5.39 µM.
The same measure for `O=[N+]([O-])c1cc(S(=O)(=O)Nc2cc(Cl)ccc2F)ccc1F`: > 20 µM (inactive).
In the case of `CCN1C(=Cc2cc(C)[n+](CC3CCCO3)c(C)c2)Sc2ccccc21` (configuration not stated), the EC50 was > 20 µM (inactive).
For `O=C(O)c1[nH]ncc1CN1CCc2onc(-c3ccc(C(F)(F)F)cc3)c2C1`, the EC50 is > 20 µM (inactive).
The result for `O=C1c2ccccc2C(=O)C1c1ccnc2ccccc12` reads 17.3 µM; that for `COc1cccc(-n2c(O)c(C=Nc3cc(OC)ccc3OC)c3ccccc3c2=O)c1`, > 20 µM (inactive); that for `O=C(O)CSc1ccc2c3c(cccc13)C(=O)c1ccccc1-2`, 0.294 µM.
The result for `Nc1nc(Cl)nc2c1ncn2[C@@H]1O[C@H](CO)[C@@H](O)[C@H]1O` reads 1.15 µM.
As for `COc1ccc(OC)c(CCNc2nc3cnc(-c4cc(OC)c(OC)c(OC)c4)cc3n2C)c1`, the EC50 was > 20 µM (inactive).
Consider `NCCNc1ccc2c3c(cccc13)C(=O)N(c1ccc(Cl)cc1)C2=O`, for which the EC50 was 0.47 µM.
Take `COc1cc(/C=C2\SC(=S)N(C(C)C(=O)O)C2=O)ccc1O` (configuration not stated): the EC50 was 3.02 µM.
The result for `CC1CCCCC1OCCNC(=O)C1(c2ccc(F)cc2)CCC1` (configuration not stated) reads > 20 µM (inactive); that for `N#CC1C(=N)SC(=N)C(C#N)C1c1ccc(Cl)cc1Cl` (configuration not stated), 7.76 µM; that for `COCCn1c(C)cn2c3c(=O)n(Cc4ccc(Cl)cc4)c(=O)n(C)c3nc12`, > 20 µM (inactive).
`CC1C(=O)N(c2cccc(F)c2)CCN1C(=O)C1CC1` (configuration not stated): the EC50 was > 20 µM (inactive).
The result for `CC(C)NC[C@@H](O)c1ccc(O)c(O)c1` reads 1.37 µM.
The same measure for `CC1N(C)c2ccc(C=Cc3cc[n+](C)cc3)cc2C1(C)C` (configuration not stated): 8.49 µM; for `COc1ccc(Cl)cc1Nc1nnc(-c2cc3c(ccc4ccccc43)oc2=O)s1`: > 20 µM (inactive); for `CCc1ccc(/C=C2\Oc3c(ccc4c3CN(C3CCS(=O)(=O)C3)CO4)C2=O)cc1` (configuration not stated): 10.6 µM.
The result for `Cc1csc(-c2cc3ccc(O)c(CN4CCN(CCO)CC4)c3oc2=O)n1` reads less than 0.039 µM.
As to `CC(C)(C)NCC(O)c1ccc(O)c(CO)c1` (configuration not stated), the EC50 is > 20 µM (inactive).
The same measure for `C[n+]1c2cc(N)ccc2cc2ccc(N)cc21`: less than 0.039 µM.
The result for `O=c1nc2sc3[nH]c(=O)sc3cc-2s1` reads less than 0.039 µM; that for `CC(C)Nc1ccc(NS(=O)(=O)NCc2ccccc2)cn1`, > 20 µM (inactive); that for `CCOC(=O)N1CCC(NC(=O)c2sc3nc4c(c(C(F)(F)F)c3c2N)CC(C)CC4)CC1` (configuration not stated), > 20 µM (inactive).
The same measure for `Cc1cccc(C2=N/C(=C\c3cc4cc5c6c(c4oc3=O)CCCN6CCC5)C(=O)O2)c1`: 0.219 µM; for `CCOC(=O)C1CCCN(c2nc3nonc3nc2N2CCSCC2)C1` (configuration not stated): > 20 µM (inactive).
`O=C1NC(=O)C2=Cc3ccc(O)cc3OC2(O)N1` (configuration not stated): the EC50 was 0.247 µM.
The result for `O=P1(Nc2cc(C(F)(F)F)ccc2Cl)C=C(c2ccccc2)OC(c2ccccc2)=C1` reads > 20 µM (inactive); that for `O=C(c1cnn(-c2ccccc2)n1)N1CCCC(COCc2ccccc2)C1` (configuration not stated), 0.513 µM; that for `N#CC1C(=N)Oc2cc(N)ccc2C1c1c(Cl)cccc1Cl` (configuration not stated), > 20 µM (inactive).
For the compound `Cc1nc(=O)c(-c2ccccc2)c(C)n1-c1ccccc1O`, the EC50 was > 20 µM (inactive).
The result for `Cc1ccc2c(c1)CCCN2CC(=O)N(CCC(N)=O)c1ccccc1` reads 16.8 µM; that for `CC(=O)Nc1nc(COC(=O)c2[nH]c(C)c(C(=O)OC(C)C)c2C)cs1`, > 20 µM (inactive); that for `CCN(CC)c1ccc2cc(C(N)=O)/c(=N\NC(N)=S)oc2c1`, less than 0.039 µM.
`CCOc1cc(/C=C2\C(=N)N3N=CSC3=NC2=O)cc(Br)c1OC(=O)c1ccccc1`: the EC50 is 3.04 µM.
The same measure for `CCN(CC)CCCC(C)Nc1c2ccc(Cl)cc2nc2ccc(OC)cc12` (configuration not stated): 4.89 µM and 1.41 µM.
For `Cc1ccc(Cl)c(Oc2cc(N3CCN(C(=O)c4ccc(Cl)c(Cl)c4)CC3)ncn2)c1`, the EC50 is > 20 µM (inactive).
The result for `C=CCC1=CC(=Cc2c(N)n3nc(Cc4cccs4)sc3nc2=O)C=C(OC)C1=O` reads 2.43 µM; that for `CCN(CC)c1ccc2c(-c3ccccc3C(=O)O)c3ccc(=[N+](CC)CC)cc-3oc2c1`, 3.62 µM.
The result for `NC(=NCCCCCCN=C(N)N=C(N)Nc1ccc(Cl)cc1)N=C(N)Nc1ccc(Cl)cc1` reads > 20 µM (inactive); that for `CC1(C)CC(c2[nH]cnc2-c2ccccc2)CCO1` (configuration not stated), > 20 µM (inactive); that for `CCOc1cc(C=O)c(O)c(C=O)c1`, 0.893 µM.
As to `O=C1CSC(=S)N1N=Cc1cc(Br)c(O)c(Br)c1`, the EC50 was 2.31 µM.
The result for `C=CCN1C=CC(=CC=C(C#N)C#N)C=C1` reads 2.17 µM; that for `CCOc1ccc(/C=C2N=C(/C=C/c3ccccc3)OC/2=O)cc1`, > 20 µM (inactive).
The result for `O=C1OC2(c3cc(Br)c(O)cc3Oc3c2cc(Br)c(O)[c]3[Hg])c2ccccc21` (configuration not stated) reads less than 0.039 µM; that for `COc1ccc(C2=NN(C(=O)CN3CCOCC3)C(c3nc4ccccc4[nH]3)C2)cc1` (configuration not stated), > 20 µM (inactive); that for `O=C(CN1C(=O)SC(=Cc2ccc(N3CCCCCC3)o2)C1=O)N1CCCCCC1`, > 20 µM (inactive).
As for `CCOC=C(C#N)c1nc(C)cs1`, the EC50 was 2.43 µM.
The result for `N#C/C(=C\c1ccc(O)c(O)c1)C(=O)NCCCc1ccccc1` reads > 20 µM (inactive).
Regarding `CCOc1ccc(C(=O)Nc2sc3c(c2-c2nc4ccccc4s2)CCN(C)C3)cc1`, the EC50 was > 20 µM (inactive).
The result for `CC1CC2(C)Oc3ccccc3C3OCC1(CO)C(C)C32` (configuration not stated) reads > 20 µM (inactive).
The result for `CCCN1CCc2c(sc3c2c(NC(CC)CO)nc2nnnn23)C1` (configuration not stated) reads > 20 µM (inactive); that for `O=C1CCCC2Nc3ncnc(Cl)c3OC12` (configuration not stated), 6.38 µM; that for `CN1C(=S)N(C2CCCCC2)C(=O)/C1=C\c1ccc2c(c1)OCO2`, > 20 µM (inactive).
The same measure for `CCN(CC)c1ccc(/C=C2\SC(=S)N(CCS(=O)(=O)O)C2=O)cc1`: 0.039 µM.
On to `CC1CN(c2ccc(/C=C(\C#N)c3nc4ccccc4[nH]3)o2)CC(C)O1` (configuration not stated), for which the EC50 was > 20 µM (inactive).
With `O=c1cc(C(F)(F)F)c2ccc(O)cc2o1`, the EC50 was 6.31 µM.
Turning to `COc1cccc(/C=C2\Oc3c(ccc4c3CN(Cc3ccncc3)CO4)C2=O)c1`, the EC50 was 10.5 µM.
The result for `COc1cc(/C=C2\Oc3c(ccc4c3CN(CC3CCCO3)CO4)C2=O)cc(OC)c1OC` (configuration not stated) reads 9.34 µM; that for `COc1ccccc1OCCCOc1ccc(Br)cc1Cl`, > 20 µM (inactive).
Regarding `CCCCC(CC)CN=C(N)NC(N)=NCCCCCCN=C(N)NC(N)=NCC(CC)CCCC` (configuration not stated), the EC50 was > 20 µM (inactive).
The same measure for `CC1=NCCc2c1[nH]c1cc(O)ccc21`: 0.419 µM.
`O=C1/C(=C/c2cc3ccccc3o2)Oc2c1ccc(O)c2CN1CCN(CCO)CC1`: the EC50 was 1.94 µM.
The same measure for `CCOc1cc(/C=C2\SC(=S)N(NC(=O)c3ccccc3O)C2=O)ccc1O`: > 20 µM (inactive); for `CSCCC(C(=O)O)N1C(=O)/C(=C/c2ccc(O)cc2)SC1=S` (configuration not stated): 6.49 µM.

Usually EC50 stands for the concentration that produces a half-maximal response.
